Experiments:
HSV-2 [1] = assay: Anti-HSV screening assay (viral plaques), HSV-2; format: cell-based; details: 100 μg/mL, viral plaques relative to mock treated controls
Protocol: African green monkey kidney (GMK AH1) cells^46 were cultured in Eagle's minimum essential medium (EMEM) supplemented with 2% calf serum, 0.05% Primaton RL substance (Kraft Inc., Norwich, USA) and antibiotics. Human epidermoid carcinoma (HEp-2) cells were cultured in Dulbecco's modified EMEM (DMEM) supplemented with 10% fetal calf serum and antibiotics. […] The RSV strain A-2^50 was used. The RSV stock was prepared as described by Hallak et al.^51 and stored at −70° C. in the presence of 40% sucrose^52.
The viral infectivity (the plaque number-reduction) assay and the plaque size-reduction assay were carried out as described previously^17. […] Subsequently, the cells were washed with 2 mL of EMEM and overlaid with 1% methylcellulose solution in EMEM. The plaques were visualized by staining with crystal violet solution after 2 (HSV-2) or 3 (HSV-1) days of incubation at 37° C. […] When the compounds were screened for anti-HSV or anti-RSV activity, mixtures of 200 PFU of the virus and the test compound (100 μg/mL) in serum-free EMEM were incubated for 10 min at room temperature before addition to cells and during the entire period of viral infection of cells and the development of viral plaques. In the plaque size-reduction assay, the compounds were added to cells (in methylcellulose overlay medium) after 2 h period of virus infection of cells in the absence of the inhibitor. After 2-3 days of incubation at 37° C., the viral plaques were visualized by staining the cells with 1% solution of crystal violet. For each compound tested, the images of twenty neighboring plaques were captured using a Leica DC300 digital camera attached to a Leitz-Wetzlar Diavert microscope. The area of each plaque was determined using IM500 image software (Leica). Similar protocols were used for RSV, except that the assays were performed in HEp-2 cells and DMEM supplemented with 2% heat-inactivated fetal calf serum was used instead of EMEM.

RSV = assay: Virus inactivation assay, RSV; format: cell-based; details: 15 min at 37° C.
Protocol: (§1) Approximately 10^5 plaque-forming units of HSV-1 KOS321 or HSV-2 333 stain and specific concentrations of the test compound in 200 μL of serum-free EMEM were mixed and incubated at 37° C. for 15 min. The mixtures were diluted to the non-inhibitory concentrations of the test compound, and then subjected to the infectious titer determination as described under the viral plaque number-reduction assay. In case of RSV, the assay was carried out in similar manner using DMEM supplemented with 2% heat-inactivated fetal calf serum instead of EMEM. To evaluate the effect of a low pH value or the presence of cervical secretions; the virus (HSV-2 333) and compounds were diluted in a low pH buffer (4.5) or cervical secretions were added to the compound dilutions before mixing with the virus (HSV-2 333). The cervical secretions were prepared from cervical swabs generated from 3 different individuals. The swabs were rinsed with distilled water and centrifuged at 5000×g for 10 min. The supernatant was kept at −20° C. In the case of RSV, the assay was carried out in a similar manner using DMEM supplemented with 2% heat-inactivated fetal calf serum instead of EMEM.

HSV-2 [2] = assay: Virus inactivation assay, HSV-2; format: cell-based; details: for Virus-inactivating activity: viral plaques with compound-treated virus relative to mock-treated controls: 15 min at 37° C.
Protocol: as §1

HSV-1 = assay: Virus inactivation assay, HSV-1; format: cell-based; details: 15 min at 37° C.
Protocol: as §1

rat aortic tissue = assay: Ex vivo angiogenic sprout assay (rat aortic angiogenesis assay); format: cell-based, Sprague Dawley rats
Protocol: Explants from rat aortas were prepared by a modification of protocols previously described^42-54. In this model, the rat aortic endothelium exposed to a three dimensional matrix of ECM-derived proteins (Matrigel™), switches to a microvascular phenotype, generating branching networks of microvessels.
Briefly, thoracic aortas were excised from 2- to 4-month old Sprague Dawley rats and trimmed of remaining fat and connective tissue. Great care was taken at every stage to reduce physical damage of the aorta. Tissue was transferred to complete EBM-2 media (Cambrex) containing 2% FCS and all Singlequots™ (Cambrex) reagents except for heparin. Meanwhile, Matrigel™ (BD Biosciences) was allowed to cool on ice and once in a liquid form, 180 μL was pipetted into 48-well tissue culture plates (Nunc). The plates were incubated at 37° C. for 30 min to allow Matrigel™ to solidify.
Aortas were prepared by cutting 1 mm ring sections and then being bisected. Aortic segments were then carefully placed on top on the Matrigel™ in the centre of each well and once orientated as required, 60 μL of extra Matrigel™ was placed on top and the plate was returned to the incubator for a further 20 min. Each well was then supplemented with 1.0 mL media in the absence (control) or presence of test compounds usually at two concentrations within the range of 1-50 μM, depending on the particular compound/experiment. Cultures were replenished as appropriate every 48 h and scoring of microvessels was carried out at various timepoints up to 8-10 days. The extent of microvessel sprouting was determined by employing a scoring system from 0-5, where 0=no microvessels to 5=diffuse angiogenesis as previously described^45. Sprouting vessels were photographed using the 4× objective with an Olympus C-7070 camera and an adaptor for the eyepiece.
In some instances, to determine the potential toxicity of compounds in this assay, the viability of the tissue was assessed by withdrawing the compound/media from the culture on day 6 or 7 and adding complete media with VEGF (typically 10 ng/mL) for up to an additional 7 days. In the absence of toxicity, the viable tissue should sprout microvessels in response to the exogenous growth factor.
The inhibitory effect of compounds of the present invention on angiogenesis was assayed using the angiogenic sprout/microvessel formation (rat aortic) assay described above. Embedding of the rat aortic tissue in Matrigel™ in the absence of any inhibitor (control) yielded extensive angiogenic sprouting (as a score of 5 indicates diffuse angiogenesis) as illustrated by FIG. 1.

SMILES	Residual infectivity (%) HSV-2 (HSV-2 [1]) [%]	Virus-inactivating activity: viral plaques with compound-treated virus relative to mock-treated controls (RSV; 4 μg/ml) [%]	Virus-inactivating activity: viral plaques with compound-treated virus relative to mock-treated controls (RSV; 20 μg/ml) [%]	Virus-inactivating activity: viral plaques with compound-treated virus relative to mock-treated controls (RSV; 100 μg/ml) [%]	Virus-inactivating activity: viral plaques with compound-treated virus relative to mock-treated controls (HSV-2 [2]; HSV-2, 1 μg/ml) [%]	Virus-inactivating activity: viral plaques with compound-treated virus relative to mock-treated controls (HSV-2 [2]; HSV-2, 10 μg/ml) [%]	Virus-inactivating activity: viral plaques with compound-treated virus relative to mock-treated controls (HSV-2 [2]; HSV-2, 100 μg/ml) [%]	Virus-inactivating activity in the presence of human cervical secretions: viral plaques relative to mock-treated controls (HSV-2 [2]; HSV-2, cervical secretions diluted 1:2.2, 1 μg/ml) [%]	Virus-inactivating activity in the presence of human cervical secretions: viral plaques relative to mock-treated controls (HSV-2 [2]; HSV-2, cervical secretions diluted 1:2.2, 10 μg/ml) [%]	Virus-inactivating activity in the presence of human cervical secretions: viral plaques relative to mock-treated controls (HSV-2 [2]; HSV-2, cervical secretions diluted 1:2.2, 100 μg/ml) [%]	Virus-inactivating activity at low pH: viral plaques relative to mock-treated controls (HSV-2 [2]; HSV-2, pH 4.5, 1 μg/ml) [%]	Virus-inactivating activity at low pH: viral plaques relative to mock-treated controls (HSV-2 [2]; HSV-2, pH 4.5, 10 μg/ml) [%]	Virus-inactivating activity at low pH: viral plaques relative to mock-treated controls (HSV-2 [2]; HSV-2, pH 4.5, 100 μg/ml) [%]	Virus-inactivating activity: viral plaques with compound-treated virus relative to mock-treated controls (HSV-1; HSV-1, 1 μg/ml) [%]	Virus-inactivating activity: viral plaques with compound-treated virus relative to mock-treated controls (HSV-1; HSV-1, 10 μg/ml) [%]	Virus-inactivating activity: viral plaques with compound-treated virus relative to mock-treated controls (HSV-1; HSV-1, 100 μg/ml) [%]	inhibition at 10 µM (rat aortic tissue; Rattus norvegicus) [%]	% Inhibition of Angiogenesis (10 μM) (rat aortic tissue; 10 μM) [%]
CC(C)CCCC(C)C1CCC2C3CCC4CC(OC5OC(COS(=O)(=O)O)C(OS(=O)(=O)O)C(OS(=O)(=O)O)C5OC5OC(COS(=O)(=O)O)C(OS(=O)(=O)O)C(OC6OC(COS(=O)(=O)O)C(OS(=O)(=O)O)C(OC7OC(COS(=O)(=O)O)C(OS(=O)(=O)O)C(OS(=O)(=O)O)C7OS(=O)(=O)O)C6OS(=O)(=O)O)C5OS(=O)(=O)O)CCC4(C)C3CCC12C [Compound 20, 3β-Cholestanyl 2,3,4,6-tetra-O-sodium sulfonato-α-D-mannopyranosyl-(1→3)-2,4,6-tri-O-sodium sulfonato-α-D-mannopyranosyl-(1→3)-2,4,6-tri-O-sodium sulfonato-α-D-mannopyranosyl-(1→2)-3,4,6-tri-O-sodium sulfonato-α-D-mannopyranoside]	0	102.2	79.0	13.3	120.3	0.3	0	82.6	78.5	0.3	93.7	6.8	0.0	88.6	0	0		
CCCCCCCCCCCCCCCCCC(=O)NCCCO[C@@H]1O[C@H](COS(=O)(=O)[O-])[C@@H](O[C@H]2O[C@H](COS(=O)(=O)[O-])[C@@H](O[C@H]3O[C@H](COS(=O)(=O)[O-])[C@@H](O[C@H]4O[C@H](COS(=O)(=O)[O-])[C@@H](OS(=O)(=O)[O-])[C@H](OS(=O)(=O)[O-])[C@H]4OS(=O)(=O)[O-])[C@H](OS(=O)(=O)[O-])[C@H]3OS(=O)(=O)[O-])[C@H](OS(=O)(=O)[O-])[C@H]2OS(=O)(=O)[O-])[C@H](OS(=O)(=O)[O-])[C@H]1OS(=O)(=O)[O-].[Na+].[Na+].[Na+].[Na+].[Na+].[Na+].[Na+].[Na+].[Na+].[Na+].[Na+].[Na+].[Na+] [Compound 128, 3-Stearamidopropyl 2,3,4,6-tetra-O-sulfo-α-D-glucopyranosyl-(1→4)-2,3,6-tri-O-sulfo-α-D-glucopyranosyl-(1→4)-2,3,6-tri-O-sulfo-α-D-glucopyranosyl-(1→4)-2,3,6-tri-O-sulfo-β-D-glucopyranoside, tridecasodium salt]																	65	
CCCCCCCCCCCCOC1OC(COS(=O)(=O)O)C(OS(=O)(=O)O)C(OS(=O)(=O)O)C1OC1OC(COS(=O)(=O)O)C(OS(=O)(=O)O)C(OC2OC(COS(=O)(=O)O)C(OS(=O)(=O)O)C(OC3OC(COS(=O)(=O)O)C(OS(=O)(=O)O)C(OC4OC(COS(=O)(=O)O)C(OS(=O)(=O)O)C(OS(=O)(=O)O)C4OS(=O)(=O)O)C3OS(=O)(=O)O)C2OS(=O)(=O)O)C1OS(=O)(=O)O [Compound 4, Dodecyl 2,3,4,6-tetra-O-sodium sulfonato-α-D-mannopyranosyl-(1→3)-2,4,6-tri-O-sodium sulfonato-α-D-mannopyranosyl-(1→3)-2,4,6-tri-O-sodium sulfonato-α-D-mannopyranosyl-(1→3)-2,4,6-tri-O-sodium sulfonato-α-D-mannopyranosyl-(1→2)-3,4,6-tri-O-sodium sulfonato-α-D-mannopyranoside]	0.7	85.2	82.2	47.3	98.6	97.5	68.1							83.9	79.4	83.8		
CC(C)CCC[C@@H](C)[C@H]1CC[C@H]2[C@@H]3CCC4CC(OCc5cn([C@@H]6O[C@H](COS(=O)(=O)[O-])[C@@H](O[C@H]7O[C@H](COS(=O)(=O)[O-])[C@@H](O[C@H]8O[C@H](COS(=O)(=O)[O-])[C@@H](OS(=O)(=O)[O-])[C@H](OS(=O)(=O)[O-])[C@H]8OS(=O)(=O)[O-])[C@H](OS(=O)(=O)[O-])[C@H]7OS(=O)(=O)[O-])[C@H](OS(=O)(=O)[O-])[C@H]6OS(=O)(=O)[O-])nn5)CC[C@]4(C)[C@H]3CC[C@]12C.[Na+].[Na+].[Na+].[Na+].[Na+].[Na+].[Na+].[Na+].[Na+].[Na+] (stereo partly drawn) [Compound 70, 4-(Cholestan-3-yl-oxymethyl)[1,2,3]triazol-1-yl 2,3,4,6-tetra-O-sodium sulfonato-α-D-glucopyranosyl-(1→4)-2,3,6-tri-O-sodium sulfonato-α-D-glucopyranosyl-(1→4)-1-deoxy-2,3,6-tri-O-sodium sulfonato-β-D-glucopyranoside]																		97
